# Test results reported in patent US20140287447A1, “Ultrasensitive methodology for quantifying the kinase catalytic activity of any protein kinase in biological/clinical samples or recombinant/purified proteins using near-infrared-fluorescence (NIRF)-labeled, kinase-selective peptide substrates and a combination of kinase-selective inhibitors to …” (priority 2013, published 2014).
# B1: recombinant PKG-Iα (rPKG-Iα) (Homo sapiens) (protein)
# chain: MSELEEDFAKILMLKEERIKELEKRLSEKEEEIQELKRKLHKCQSVLPVPSTHIGPRTTRAQGISAEPQTYRSFHDLRQAFRKFTKSERSKDLIKEAILDNDFMKNLELSQIQEIVDCMYPVEYGKDSCIIKEGDVGSLVYVMEDGKVEVTKEGVKLCTMGPGKVFGELAILYNCTRTATVKTLVNVKLWAIDRQCFQTIMMRTGLIKHTEYMEFLKSVPTFQSLPEEILSKLADVLEETHYENGEYIIRQGARGDTFFIISKGTVNVTREDSPSEDPVFLRTLGKGDWFGEKALQGEDVRTANVIAAEAVTCLVIDRDSFKHLIGGLDDVSNKAYEDAEAKAKYEAEAAFFANLKLSDFNIIDTLGVGGFGRVELVQLKSEESKTFAMKILKKRHIVDTRQQEHIRSEKQIMQGAHSDFIVRLYRTFKDSKYLYMLMEACLGGELWTILRDRGSFEDSTTRFYTACVVEAFAYLHSKGIIYRDLKPENLILDHRGYAKLVDFGFAKKIGFGKKTWTFCGTPEYVAPEIILNKGHDISADYWSLGILMYELLTGSPPFSGPDPMKTYNIILRGIDMIEFPKKIAKNAANLIKKLCRDNPSERLGNLKNGVKDIQKHKWFEGFNWEGLRKGTLTPPIIPSVASPTDTSNFDSFPEDNDEPPPDDNSGWDIDF
# Experiments:
# [1] = tested on: MDA-MB-231 breast cancer cell lysates; assay: NIRF-based kinase reaction in breast cancer cell lysates with and without PKC-inhibitor cocktail; type: biochemical; settings: cGMP 10 μM, MDA-MB-231 cell lysates
# Procedure: This allows simultaneous determination of PKG-I kinase activity in MDA-MB-231 breast cancer cell lysates (D).
# Each reagent has been previously experimentally tested to be the optimum concentration used for a complete radioactive-free kinase reaction to measure PKG kinase activity. The reagents for homogenizing buffer include: 20 mM Potassium phosphate (pH 7.0), 10 mM EDTA, 0.5 mM isobutylmethylxanthine, and 10 mM DTT.
# Table 5 is the disclosure protocol that is illustrated as a work flow in FIG. 7. Biological samples can be prepared in the homogenizing buffer (Table 4) using a variety of techniques. These techniques include, but are not limited to: sonication, dounce-homogenation, the use of a tissue grinder, and/or a detergent specialized for lysing cells. Once a biological sample is prepared in the specially formulated homogenizing buffer from Table 4 or purified/recombinant protein buffer recommended by the manufacturer (2) included in the disclosure, the sample can be added to a sterile microfuge tube containing the radioactive-free kinase reaction mixture containing NIRF-Histone-H2B(29-35) (Table 3 and FIG. 1) (4). The kinase reaction typically requires an incubation chamber capable of reaching a temperature of 30° C. to incubate the samples. The time and temperature of incubation is determined by the researcher, but short incubation times of 2 minutes can be used. […]
# [2] = substrate: Nc1ncnc2c1ncn2[C@@H]1O[C@H](COP(=O)(O)OP(=O)(O)OP(=O)(O)O)[C@@H](O)[C@H]1O; assay: purified protein, by the assay type; settings: 30.0 °C
Molecule,effect of exogenously-added cGMP on kinase activity in cell lysates [1],Km [2] [µM]
"Nc1nc2c(ncn2[C@@H]2O[C@@H]3COP(=O)(O)O[C@H]3[C@H]2O)c(=O)[nH]1 [cGMP, cyclic guanosine monophosphate]",does not cause increased kinase activity,–
B1,–,8.8
